{"source": "patent US7713960B2", "about": "“Inhibition of the Raf/Mek/P-Erk pathway for treating cancer” (University of South Florida, priority 2005, dated 2010)", "key": {"Rap-1": {"tested_on": "Rap-1", "experiment": "Rap-1 activation assay, ACHN cells", "format": "cell-based, human", "details": "10 μM, 1 hour", "method": "The effect of B2AR stimulation on Rap1 was investigated using the following methods: A Rap-1 activation assay kit (Upstate, Temecula, Calif.) was used according to protocol to determine if stimulation of the B2AR by ARA-211, and subsequent downstream signaling resulting in inhibition of P-Erk 1/2, is mediated by activation of Rap-1 directly by the Rap-1 guanine nucleotide exchange factor Epac. […] Cells were incubated with drugs for 1 hour unless noted otherwise. Cells were then lysed, the positive control lysate was incubated with 10 mM EDTA and 100 μM GTPγS and incubated for 30 minutes to load GTP onto Rap-1. Lysates from all samples were then incubated with 25 μg GST-RalGDS-Rap-1 binding domain beads for 45 minutes, washed with assay buffer 3×, resuspended in 40 μl of 2×Laemmli sample buffer and boiled for 5 minutes. Samples were resolved by SDS-PAGE electrophoresis, transferred to nitrocellulose, blotted overnight with 1 μ/ml polyclonal anti-Rap-1, and visualized by chemiluminescence."}, "P-Erk 1/2": {"tested_on": "P-Erk 1/2", "experiment": "P-Erk 1/2 levels (Western blotting), MDA-MB-231", "format": "cell-based, human", "details": "MDA-MB-231; with ARA-211", "method": "Western Blotting—Treated cell samples were lysed in 30 mM HEPES, 10 mM NaCl, 5 mM MgCl2, 25 mM NaF, 1 mM EGTA, 1% Triton-X-100, 10% Glycerol, 2 mM Sodium orthovanidate, 10 μg/mL aprotinin, 10 μg/mL soybean trypsin inhibitor, 25 μg/mL leupeptin, 2 mM phenylmethylsulfonylfluoride (PMSF), 6.4 mg/mL p-nitrophenylphosphate for 30 minutes at 4° C., and proteins run on SDS-PAGE gels then transferred to nitrocellulose membranes. Membranes were blocked in either 5% milk in PBS, pH 7.4, containing 0.1% Tween-20 (PBS-T) or 1% BSA in TBS, pH 7.5, containing 0.1% Tween-20 (TBS-T). Phospho-STAT3 and phospho-AKT antibodies were diluted in 1% BSA in TBS-T while phospho-c-Raf, phospho-Mek, and phospho-p44/p42 MAPK antibodies (Cell Signaling) were diluted in 5% milk in PBS-T for either 1 hour at room temperature or overnight at 4° C. HRP-conjugated secondary antibodies (Jackson ImmunoResearch, West Grove, Pa.) were diluted in 5% milk in PBS-T or TBS-T at a 1:1000 dilution for one hour at room temperature. Western blots results were visualized using enhanced chemiluminescence. Stripping of the membranes for reblotting was done using stripping buffer (62.5 mM Tris pH 7.6, 2% SDS, 0.7% 2-mercaptoethanol) at 50° C. for 30 minutes."}, "MDA-MB-231 cells": {"tested_on": "MDA-MB-231 cells", "experiment": "Alamar Blue proliferation assay, MDA-MB-231", "format": "cell-based, human", "details": "MDA-MB-231; with ARA-211", "method": "Cell Lines and Transfections—All cell lines used were obtained from American Type Tissue Collection (ATCC), (Manassas, Va.), or from the DCTD Tumor Repository, (Frederick, Md.). Propagation was carried out according to ATCC protocols. Propagation media was obtained from Invitrogen Corporation (Carlsbad, Calif.). DNA transfections were carried out using TransIT-LT1 transfection reagent (Takara Mirus, Madison, Wis.) according to the manufacturer's protocol. Briefly, 4×10^5 MDA-MB-231 cells were grown to approximately 70% confluency in medium supplemented with 10% FBS (Atlanta Biologicals, Atlanta, Ga.) in the absence of antibiotics. For transfection, LT1 was pre-incubated in 200 μl per transfection in Opti-MEM (Invitrogen) for 20 minutes prior to addition of plasmid. […]\nAlamar Blue proliferation assay—For proliferation assays using exogenous constitutively activated MEK or the B2AR antagonist ICI-118.551, Alamar Blue metabolism assay used to determine cell viability according to the manufacturers protocol (Biosource, Camarillo, Calif.). […] Media/Alamar Blue was removed from the cells and aliquoted into 96 well plates (100 μl per well) and fluorescence read on a Wallac Victor 2 plate reader at excitation 540 nm, and emission 615 nm."}, "Mek-1": {"target": "T1, Mek-1 (Homo sapiens, UniProt Q02750)", "T1 construct": "c-Raf-1 and Mek-1, immunoprecipitated from MDA-MB-231 cells; endogenous in cells; host or cells: MDA-MB-231", "T1 sequence (Q02750 whole entry)": "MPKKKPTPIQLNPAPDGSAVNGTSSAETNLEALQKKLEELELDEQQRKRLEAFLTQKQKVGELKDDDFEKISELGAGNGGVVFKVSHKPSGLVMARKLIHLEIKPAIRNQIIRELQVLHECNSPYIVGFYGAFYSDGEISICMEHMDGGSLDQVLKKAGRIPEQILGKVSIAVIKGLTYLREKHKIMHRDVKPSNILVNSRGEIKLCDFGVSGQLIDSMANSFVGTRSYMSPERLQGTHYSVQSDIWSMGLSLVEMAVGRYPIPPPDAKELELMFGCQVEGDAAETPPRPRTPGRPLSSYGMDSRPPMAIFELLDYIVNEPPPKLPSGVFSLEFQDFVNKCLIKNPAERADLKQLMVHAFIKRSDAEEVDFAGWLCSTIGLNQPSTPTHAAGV", "experiment": "In vitro kinase assay, Mek-1 immunoprecipitated from MDA-MB-231 cells", "format": "biochemical", "details": "immunoprecipitated kinase treated in vitro, 10 μM", "method": "In Vitro Kinase Assays—MDA-MB-231 cells (2×10^6) were lysed for 30 minutes at 4° C. in RIPA-150 buffer (10 mM Tris pH 7.5, 150 mM NaCl, 10% glycerol, 5 mM EDTA, 1% Triton X-100, 0.1% SDS, 100 μM sodium orthovanadate, 1 μM aprotinin, 10 μM leupeptin, 10 μM antipain). Cell debris was pelleted at 13000 rpm for 15 minutes at 4° C. and the lysate was rocked overnight with 10 μg of either c-Raf or MEK antibodies (Santa Cruz Biotechnologies, Santa Cruz, Calif.). 25 μl of protein A/G PLUS agarose (Santa Cruz Biotechnology) was then added and rocked for 4 hours at 4° C. Samples were spun at 2000 rpm for 5 minutes to collect the agarose beads, which were then washed four times with lysis buffer. On the final wash each pellet was divided into 5. […]"}}, "data": [{"smiles": "CO[C@@H]1[C@@H]2OP(=O)(O)OC[C@H]2O[C@H]1n1c(Sc2ccc(Cl)cc2)nc2c(N)ncnc21", "note": "[EPAC activator, 8-(4-chlorophenylthio)-2′-O-methyladenosine-3′,5′-cyclic monophosphate]", "values": [{"measurement": "Rap-1 activation (GTP-loaded Rap-1)", "setting": "Rap-1", "value": "activated Rap-1"}]}, {"smiles": "O=S(=O)(NCCNC/C=C/c1ccc(Br)cc1)c1cccc2cnccc12", "note": "[H89]", "values": [{"measurement": "Rap-1 activation (GTP-loaded Rap-1)", "setting": "Rap-1", "value": "had no effect on Rap-1 activation"}]}, {"smiles": "Cc1ccc(OCC(O)C(C)NC(C)C)c2c1CCC2", "note": "(stereo not drawn) [ICI 118, 551]", "values": [{"measurement": "effect of β2 antagonist on ARA-211 suppression of P-Erk 1/2 levels", "setting": "P-Erk 1/2", "value": "prevented ARA-211 from suppressing P-Erk 1/2 levels"}, {"measurement": "effect of β2 AR antagonist on ARA-211 inhibition of tumor cell growth", "setting": "MDA-MB-231 cells", "value": "rescued human cancer cells from ARA-211 inhibition of tumor cell growth"}]}, {"smiles": "N#CC(=C(/N)Sc1ccccc1N)/C(C#N)=C(\\N)Sc1ccccc1N", "note": "[U-0126]", "values": [{"measurement": "in vitro Mek-1 kinase activity", "setting": "Mek-1", "value": "blocked"}]}, {"smiles": "CC(C)NCC(O)c1ccc(O)c(O)c1", "note": "(stereo not drawn) [isoproterenol]", "values": [{"measurement": "Rap-1 activation (GTP-loaded Rap-1)", "setting": "Rap-1", "value": "activated Rap-1"}]}]}
